Measured values: paper PMC3961306, “Comparison of the Cancer Gene Targeting and Biochemical Selectivities of All Targeted Kinase Inhibitors Approved for Clinical Use” (PLoS ONE, 2014)
Like-named read-outs stand apart in the source and are kept apart here.

Experiments:
[1] = biological target: panel of more than 300 wild-type and mutant kinases (313 kinase panel) (Homo sapiens, UniProt P15056, V600E); experiment: Kinase profiling in a biochemical assay panel (mobility shift assays and ELISA), %-inhibition at 1 μM; selectivity entropy; settings: kinase BRAF(V600E); 1 μM compound
[2] = biological target: panel of more than 300 wild-type and mutant kinases (313 kinase panel) (Homo sapiens, UniProt P00519); experiment: as above; settings: kinase ABL; 1 μM compound
[3] = biological target: panel of more than 300 wild-type and mutant kinases (313 kinase panel) (Homo sapiens, UniProt P11362, V561M); experiment: as above; settings: kinase FGFR1(V561M); compound at 1 μM
[4] = biological target: panel of more than 300 wild-type and mutant kinases (313 kinase panel) (Homo sapiens, UniProt P00519, E255K); experiment: as above; settings: kinase ABL(E255K); 1 μM compound
[5] = biological target: panel of more than 300 wild-type and mutant kinases (313 kinase panel) (Homo sapiens, UniProt P22612); experiment: as above; settings: kinase PKACγ; 1 μM
[6] = biological target: panel of more than 300 wild-type and mutant kinases (313 kinase panel) (Homo sapiens, UniProt Q9UM73, R1275Q); experiment: as above; settings: kinase ALK(R1275Q); 1 μM compound
[7] = biological target: panel of more than 300 wild-type and mutant kinases (313 kinase panel) (Homo sapiens, UniProt P00533, T790M); experiment: as above; settings: kinase EGFR(T790M); compound at 1 μM
[8] = biological target: panel of more than 300 wild-type and mutant kinases (313 kinase panel) (Homo sapiens, UniProt P00533, L858R/T790M); experiment: as above; settings: kinase EGFR(T790M/L858R); compound at 1 μM
[9] = biological target: panel of more than 300 wild-type and mutant kinases (313 kinase panel) (Homo sapiens, UniProt P00533, L858R); experiment: as above; settings: kinase EGFR(L858R); compound at 1 μM
[10] = biological target: panel of more than 300 wild-type and mutant kinases (313 kinase panel) (Homo sapiens, UniProt P00533, L861Q); experiment: as above; settings: kinase EGFR(L861Q); compound at 1 μM
[11] = biological target: panel of more than 300 wild-type and mutant kinases (313 kinase panel) (Homo sapiens, UniProt P15056); experiment: as above; settings: kinase BRAF; 1 μM compound
[12] = biological target: panel of more than 300 wild-type and mutant kinases (313 kinase panel) (Homo sapiens, UniProt P07947, T348I); experiment: as above; settings: kinase YES(T348I); compound at 1 μM
[13] = biological target: panel of more than 300 wild-type and mutant kinases (313 kinase panel) (Homo sapiens, UniProt P00533); experiment: as above; settings: kinase EGFR; compound at 1 μM
[14] = biological target: panel of more than 300 wild-type and mutant kinases (313 kinase panel) (Homo sapiens, UniProt P09619); experiment: as above; settings: kinase PDGFRβ; 1 μM
[15] = test system: forty-four human cancer cell lines; experiment: Cell proliferation assay (ATPlite, 72 hours) in the 44 cell line Oncolines panel; type: cell-based; settings: Homo sapiens
[16] = 4-4 cell, read-out: cell panel IC50, J82
[17] = 4-4 cell, read-out: cell panel IC50, PA-1
[18] = 4-4 cell, read-out: cell panel IC50, SJCRH30
[19] = 4-4 cell, read-out: cell panel IC50, SR
[20] = 769-P, read-out: cell panel IC50, 769-P
[21] = 786-0, read-out: cell panel IC50, 786-0
[22] = A 172, read-out: cell panel IC50, A-172
[23] = A204, read-out: cell panel IC50, A-204
[24] = A498, read-out: cell panel IC50, A-498
[25] = A549, read-out: cell panel IC50, A-549
[26] = A-375, read-out: cell panel IC50, A375
[27] = A-427, read-out: cell panel IC50, A-427
[28] = ACHN, read-out: cell panel IC50, ACHN
[29] = AN3-CA, read-out: cell panel IC50, AN3 CA
[30] = AU565, read-out: cell panel IC50, AU-565
[31] = BT-20, read-out: cell panel IC50, BT-20
[32] = BT-549, read-out: cell panel IC50, BT-549
[33] = BXPC-3, read-out: cell panel IC50, BxPC-3
[34] = C-33-A, read-out: cell panel IC50, C-33 A
[35] = CAL-27, read-out: cell panel IC50, CAL 27
[36] = CCRF-CEM, read-out: cell panel IC50, CCRF-CEM
[37] = DLD-1, read-out: cell panel IC50, DLD-1
[38] = FaDu, read-out: cell panel IC50, FaDu
[39] = HCT-15, read-out: cell panel IC50, HCT-15
[40] = HCT-116, read-out: cell panel IC50, HCT-116
[41] = Hs-578T, read-out: cell panel IC50, Hs 578T
[42] = Jurkat E6.1, read-out: cell panel IC50, Jurkat E6.1
[43] = K562, read-out: cell panel IC50, K-562
[44] = LS174T, read-out: cell panel IC50, LS 174T
[45] = LoVo, read-out: cell panel IC50, LoVo
[46] = MG-63, read-out: cell panel IC50, MG-63
[47] = MOLT-4, read-out: cell panel IC50, MOLT-4
[48] = MeWo, read-out: cell panel IC50, MeWo
[49] = NCI-H82, read-out: cell panel IC50, NCI-H82
[50] = NCI-H460, read-out: cell panel IC50, NCI-H460
[51] = OVCAR-3, read-out: cell panel IC50, OVCAR-3
[52] = RPMI-7951, read-out: cell panel IC50, RPMI-7951
[53] = SHP77, read-out: cell panel IC50, SHP-77
[54] = SK-N-AS, read-out: cell panel IC50, SK-N-AS
[55] = SW48, read-out: cell panel IC50, SW48
[56] = SW480, read-out: cell panel IC50, SW480
[57] = SW-620, read-out: cell panel IC50, SW620
[58] = U2OS, read-out: cell panel IC50, U-2 OS
[59] = U-87 MG, 72 h, read-out: IC50 in cell proliferation assay (table S5 cellpanel data)

COc1cc2nccc(Oc3ccc(NC(=O)C4(C(=O)Nc5ccc(F)cc5)CC4)cc3)c2cc1OC [cabozantinib] was tested, and the “%-inhibition, BRAF(V600E)” value [1] was 37%, the “%-inhibition, ABL” value [2] was 56% and the “%-inhibition of FGFR1(V561M)” value [3] was -2.45%. For the same compound, the “%-inhibition, ABL(E255K)” value [4] was 25%, the “%-inhibition of PKACγ” value [5] was -2.59% and the “%-inhibition, ALK(R1275Q)” value [6] was 79%. For the same compound, the “%-inhibition of EGFR(T790M)” value [7] was 32%, the “%-inhibition of EGFR(T790M/L858R)” value [8] was 29% and the “%-inhibition of EGFR(L858R)” value [9] was 30%. The “%-inhibition of EGFR(L861Q)” value [10] was 46%, the “%-inhibition, BRAF” value [11] was 25% and the “%-inhibition of YES(T348I)” value [12] was 67%. For the same compound, the “%-inhibition of EGFR” value [13] was 54%, the “%-inhibition of PDGFRβ” value [14] was 84% and the IC50 [15, 16] was 22.9 µM. The IC50 [15, 17] was 17.8 µM, the IC50 [15, 18] was 15.2 µM and the IC50 [15, 19] was 24.5 µM. It also gave an IC50 [15, 20] of 30 µM, an IC50 [15, 21] of 28.7 µM and an IC50 [15, 22] of 14.6 µM. The IC50 [15, 23] was 0.082 µM, the IC50 [15, 24] was 24.1 µM and the IC50 [15, 25] was 18.5 µM. For the same compound, the IC50 [15, 26] was > 31.6 µM, the IC50 [15, 27] was 14.3 µM and the IC50 [15, 28] was 20.9 µM. The IC50 [15, 29] was 6.03 µM, the IC50 [15, 30] was 20.1 µM and the IC50 [15, 31] was > 31.6 µM. For the same compound, the IC50 [15, 32] was 30.3 µM, the IC50 [15, 33] was 24.1 µM and the IC50 [15, 34] was 19.7 µM. It also gave an IC50 [15, 35] of 23.4 µM, an IC50 [15, 36] of 19.5 µM and an IC50 [15, 37] of 22.7 µM. For the same compound, the IC50 [15, 38] was > 31.6 µM, the IC50 [15, 39] was 21.9 µM and the IC50 [15, 40] was 20.9 µM. The IC50 [15, 41] was 24.2 µM, the IC50 [15, 42] was 11.5 µM and the IC50 [15, 43] was 3.94 µM. The IC50 [15, 44] was > 31.6 µM, the IC50 [15, 45] was 7.63 µM and the IC50 [15, 46] was 15.6 µM. The IC50 [15, 47] was 12.1 µM, the IC50 [15, 48] was 29.8 µM and the IC50 [15, 49] was 16.8 µM. For the same compound, the IC50 [15, 50] was 28.1 µM, the IC50 [15, 51] was > 31.6 µM and the IC50 [15, 52] was 14.9 µM. The IC50 [15, 53] was > 31.6 µM, the IC50 [15, 54] was 31 µM and the IC50 [15, 55] was 12.5 µM. It also gave an IC50 [15, 56] of 16.2 µM, an IC50 [15, 57] of 6.24 µM and an IC50 [15, 58] of 19.3 µM. It also gave an IC50 [15, 59] of 22.3 µM.
For Cc1ccc(Nc2nccc(N(C)c3ccc4c(C)n(C)nc4c3)n2)cc1S(N)(=O)=O [pazopanib], the “%-inhibition of EGFR(T790M)” value [7] was 5%, the “%-inhibition of EGFR(T790M/L858R)” value [8] was 43% and the “%-inhibition of EGFR(L858R)” value [9] was 36%. For the same compound, the “%-inhibition of EGFR(L861Q)” value [10] was 13%, the “%-inhibition of EGFR” value [13] was 17% and the “%-inhibition of PDGFRβ” value [14] was 96%. It also gave an IC50 [15, 16] of 28.9 µM, an IC50 [15, 17] of 10.6 µM and an IC50 [15, 18] of 9.59 µM. The IC50 [15, 19] was 6.2 µM, the IC50 [15, 20] was 5.99 µM and the IC50 [15, 21] was 8.1 µM. For the same compound, the IC50 [15, 22] was 13.1 µM, the IC50 [15, 23] was 0.229 µM and the IC50 [15, 24] was 11.1 µM. The IC50 [15, 25] was 14.8 µM, the IC50 [15, 26] was 16.7 µM and the IC50 [15, 27] was 7.3 µM. For the same compound, the IC50 [15, 28] was 9.33 µM, the IC50 [15, 29] was 0.289 µM and the IC50 [15, 30] was 6.57 µM. It also gave an IC50 [15, 31] of 19.2 µM, an IC50 [15, 32] of 7.91 µM and an IC50 [15, 33] of 6.71 µM. It also gave an IC50 [15, 34] of 7.9 µM, an IC50 [15, 35] of 18.6 µM and an IC50 [15, 36] of 10.9 µM. It also gave an IC50 [15, 37] of 10.5 µM, an IC50 [15, 38] of 11.5 µM and an IC50 [15, 39] of 11.8 µM. It also gave an IC50 [15, 40] of 17.4 µM, an IC50 [15, 41] of 11.5 µM and an IC50 [15, 42] of 4.58 µM. The IC50 [15, 43] was 12.5 µM, the IC50 [15, 44] was 9.94 µM and the IC50 [15, 45] was 7.39 µM. It also gave an IC50 [15, 46] of 13.5 µM, an IC50 [15, 47] of 6.89 µM and an IC50 [15, 48] of 25.4 µM. For the same compound, the IC50 [15, 49] was 8.41 µM, the IC50 [15, 50] was 1.63 µM and the IC50 [15, 51] was > 31.6 µM. The IC50 [15, 52] was 15.1 µM, the IC50 [15, 53] was 12.5 µM and the IC50 [15, 54] was 19.4 µM. For the same compound, the IC50 [15, 55] was 13.1 µM, the IC50 [15, 56] was 10.2 µM and the IC50 [15, 57] was 9.11 µM. For the same compound, the IC50 [15, 58] was 14 µM and the IC50 [15, 59] was 24 µM.
